Source: patent US8883486B2, “Arrestin biosensor” (Universite de Montreal, priority 2004, dated 2014)
“Also recorded” adds a separate entry of the source.

Columns and labels:
V2R [1] = molecular target: T1, V2R (Homo sapiens, UniProt P30518); details: ligand is inverse agonist in the AC pathway; leads to activation of the ERK cascade; cited from earlier work
Target sequence in this assay (P30518 whole entry): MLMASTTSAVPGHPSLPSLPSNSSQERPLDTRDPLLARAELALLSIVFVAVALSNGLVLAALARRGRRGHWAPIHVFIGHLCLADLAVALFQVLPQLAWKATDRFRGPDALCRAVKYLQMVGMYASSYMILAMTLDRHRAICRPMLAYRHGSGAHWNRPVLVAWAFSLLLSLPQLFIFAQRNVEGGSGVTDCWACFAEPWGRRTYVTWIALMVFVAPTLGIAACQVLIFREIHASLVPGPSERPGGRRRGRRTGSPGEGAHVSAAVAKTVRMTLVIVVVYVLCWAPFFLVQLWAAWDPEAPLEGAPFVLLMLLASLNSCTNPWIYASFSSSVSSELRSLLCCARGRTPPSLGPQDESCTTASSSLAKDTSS
Target sequence in this assay (P32121 whole entry partner): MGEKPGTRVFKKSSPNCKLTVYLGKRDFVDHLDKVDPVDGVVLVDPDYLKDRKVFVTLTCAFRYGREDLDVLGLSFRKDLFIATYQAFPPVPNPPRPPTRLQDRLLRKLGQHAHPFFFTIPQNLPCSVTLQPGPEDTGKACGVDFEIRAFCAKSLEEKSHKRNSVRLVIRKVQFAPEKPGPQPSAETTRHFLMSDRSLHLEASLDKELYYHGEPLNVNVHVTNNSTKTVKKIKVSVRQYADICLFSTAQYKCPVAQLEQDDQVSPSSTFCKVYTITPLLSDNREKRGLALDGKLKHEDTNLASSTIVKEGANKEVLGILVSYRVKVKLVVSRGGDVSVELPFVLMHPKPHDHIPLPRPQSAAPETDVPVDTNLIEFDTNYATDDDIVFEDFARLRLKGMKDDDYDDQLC

V2R [2] = molecular target: T1, V2R; assay: Intramolecular BRET1 of double-brilliance β-arr (Luc-β-arr-YFP): conformational change of β-arr; format: cell-based; parameters: expressed in transfected cells; host or cells: HEK293; details: HEK293 cells co-expressing V2R and Luc-β-arr-YFP
Target sequence in this assay (P30518 whole entry): as the sequence (P30518 whole entry) above
Procedure: HEK293 cells were transfected with the indicated plasmids and BRET was measured at 25° C. in the presence of coelenterazine h. […] Data are the mean±s.e.m. of at least three independent experiments. *P<0.01 between treated and control condition.
The basal BRET signals were subtracted from each condition to express the data as ligand-induced BRET increase.
BRET assays. […] Briefly, cells were distributed in 96-well microplates (Corning, Corning, USA) and incubated with or without agonist for the indicated time at 25° C. The appropriate Luc substrate was added to a final concentration of 5 mM, either simultaneously with the agonist (time course) or following agonist treatment (single measurement or dose dependency), and readings were collected using a Multilabel Reader Mithras LB 940 (Berthold Technologies, Bad Wildbad, Germany). […] The BRET signal was determined by calculating the ratio of the light emitted by the fluorescent acceptor and the light emitted by Luc. The values were corrected by subtracting the background BRET signals detected when Luc-β-arr was expressed alone.

CCOc1ccc2c(c1)C1(CCC(OCCN3CCOCC3)CC1)C(=O)N2S(=O)(=O)c1ccc(C(=O)NC(C)(C)C)cc1OC (centres unmarked) [SR121463]
recruitment of β-arr (V2R [1]): induced the recruitment of β-arr | ligand-induced intramolecular BRET increase (V2R [2]): significantly lower than that induced by AVP treatment; also recorded: can promote an increase in the BRET signal
